IC50 data for 50 compounds are collected here from ChEMBL document CHEMBL5604063, “ASAP - DENV-2 NS2B-NS3 protease fluorescence dose response” (2024).

SMILES strings stand for the structures. “And” between values parts separate entries of the source, which are not always exact repeats. Identical values can stand only once.

Experiment [1] has as its target T1, Genome polyprotein (dengue virus type 2, UniProt P29990). It counts as functional, Thailand/16681/1984.
Experiment [2] concerns the target T1, Genome polyprotein. It counts as functional, Thailand/16681/1984. This is another data set of the same source.

T1 sequence (P29990 1346-1475 limits assumed): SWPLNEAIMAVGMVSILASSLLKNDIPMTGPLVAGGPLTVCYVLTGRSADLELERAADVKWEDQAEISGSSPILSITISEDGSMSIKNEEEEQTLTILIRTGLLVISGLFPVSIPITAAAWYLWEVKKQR
T1 sequence (P29990 1476-2093 limits assumed): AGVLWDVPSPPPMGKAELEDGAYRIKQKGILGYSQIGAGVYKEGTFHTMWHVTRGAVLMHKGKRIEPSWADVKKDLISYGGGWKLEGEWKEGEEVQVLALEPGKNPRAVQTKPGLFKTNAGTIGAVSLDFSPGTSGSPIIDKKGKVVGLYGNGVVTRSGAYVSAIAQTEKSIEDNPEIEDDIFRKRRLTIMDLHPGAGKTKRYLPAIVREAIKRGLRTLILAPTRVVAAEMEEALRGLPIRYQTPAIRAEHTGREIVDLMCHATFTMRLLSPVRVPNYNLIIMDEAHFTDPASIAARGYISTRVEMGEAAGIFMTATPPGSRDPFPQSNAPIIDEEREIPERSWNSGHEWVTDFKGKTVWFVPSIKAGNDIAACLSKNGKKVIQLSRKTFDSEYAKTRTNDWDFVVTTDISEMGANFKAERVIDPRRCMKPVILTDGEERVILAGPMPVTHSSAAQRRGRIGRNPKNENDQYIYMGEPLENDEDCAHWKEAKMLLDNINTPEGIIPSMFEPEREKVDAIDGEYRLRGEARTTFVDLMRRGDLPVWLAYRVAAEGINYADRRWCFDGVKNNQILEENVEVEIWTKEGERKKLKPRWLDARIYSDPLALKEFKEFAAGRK

For `O=C(Nc1cc(Cl)cc(C(=O)NCCc2nnn[nH]2)c1)OCc1ccccc1`, the IC50 against Genome polyprotein [1] was above 100 µM; on Genome polyprotein [2], above 99.5 µM.
On to `N[C@H]1Cc2ccc(NC(=O)c3cc(Cl)cc(NC(=O)OCc4ccccc4)c3)cc2C1`, for which the half-inhibitory concentration (IC50) came out at 64.2 µM on Genome polyprotein [1] and 33.3 µM on Genome polyprotein [2].
Taken in the same sequence, the figures for `N#Cc1ccc(CN)cc1NC(=O)c1cc(Cl)cc(NC(=O)OCc2ccccc2)c1` were above 100 µM and above 99.5 µM.
Consider `Cc1nc(-c2ccc(Cl)cc2)sc1C(=O)Nc1cccc(CN)c1`, for which the IC50 on Genome polyprotein [1] is above 100 µM; against Genome polyprotein [2], above 99.5 µM.
As to `CC[C@H](Cc1nnn[nH]1)c1ccc(NC(=O)c2cc(Cl)cc(SC)c2)cc1`, the IC50 on Genome polyprotein [1] amounted to 40.6 µM; at Genome polyprotein [2], 67.2 µM.
Taken in the same sequence, the figures for `CCn1c(=O)c(N2CC[C@H](CO)C2)nc2ccc(C(=O)NS(C)(=O)=O)cc21` were above 100 µM and above 99.5 µM.
Consider `Cc1c(C(=O)Nc2cccc([C@H]3CCNC3)c2)cc(C2CC2)n1C`, for which the IC50 at Genome polyprotein [1] is above 100 µM; on Genome polyprotein [2], above 99.5 µM.
As for `Cc1c(C(=O)Nc2cccc(CCN)c2)cc(C2CC2)n1C`, the IC50 is above 100 µM at Genome polyprotein [1] and above 99.5 µM against Genome polyprotein [2].
Turning to `O=C(Nc1cc(Cl)cc(C(=O)Nc2cccc(-c3cn[nH]n3)c2)c1)OCc1ccccc1`, the IC50 is above 100 µM on Genome polyprotein [1] and 55.7 µM against Genome polyprotein [2].
`Cc1ccc(NC(=O)c2cc(C3CC3)n(C)c2C)cc1CN`: the IC50 is above 100 µM against Genome polyprotein [1] and above 99.5 µM at Genome polyprotein [2].
Take `CC[C@H](Cc1nnn[nH]1)c1ccc(NC(=O)c2cc(Cl)cc3[nH]ncc23)cc1`: the IC50 is above 100 µM against Genome polyprotein [1] and above 99.5 µM against Genome polyprotein [2].
Taken in the same sequence, the figures for `CCc1nc(C(=O)Nc2cccc(CN)c2)nn1-c1c(Cl)cccc1Cl` were above 100 µM and above 99.5 µM.
With `N#Cc1cc(Cl)cc(C(=O)Nc2cccc(-n3nn[nH]c3=O)c2)c1`, the IC50 was above 100 µM at Genome polyprotein [1] and above 99.5 µM on Genome polyprotein [2].
As to `Cn1nnnc1-c1cccc(NC(=O)c2cc(Cl)cc(NC(=O)OCc3ccccc3)c2)c1`, the IC50 against Genome polyprotein [1] was above 100 µM; at Genome polyprotein [2], above 99.5 µM.
As to `O=C1Cc2cc(NC(=O)c3cc(Cl)cc(NC(=O)OCc4ccccc4)c3)ccc2N1`, the IC50 against Genome polyprotein [1] is above 100 µM; at Genome polyprotein [2] it was above 99.5 µM.
For the compound `CSc1cc(Cl)cc(C(=O)Nc2cccc(-n3nn[nH]c3=O)c2)c1`, the values for the IC50 on Genome polyprotein [1] and against Genome polyprotein [2] were 78.2 µM and above 99.5 µM, respectively.
On to `Nc1cccc(NC(=O)c2cc(Cl)cc(NC(=O)OCc3ccccc3)c2)n1`, for which the 50% inhibitory concentration (IC50) was above 100 µM at Genome polyprotein [1] and above 99.5 µM on Genome polyprotein [2].
For `O=C(Nc1cc(Cl)cc(C(=O)NCCCc2nnn[nH]2)c1)OCc1ccccc1`, the IC50 against Genome polyprotein [1] is above 100 µM; at Genome polyprotein [2], above 99.5 µM.
`O=C(Nc1cc(Cl)cc(C(=O)Nc2ccc(-n3nn[nH]c3=O)cc2)c1)OCc1ccccc1`: the concentration for half-maximal inhibition (IC50) was 7.45 µM and 7.74 µM against Genome polyprotein [1]; 13.3 µM and 14.1 µM against Genome polyprotein [2].
For the compound `CC(C)[C@H](NC(=O)c1cc(Cl)cc(NC(=O)OCc2ccccc2)c1)c1nn[nH]n1`, the half-maximal inhibitory concentration (IC50) at Genome polyprotein [1] is 61.3 µM and 41.1 µM and 39.5 µM and 56.3 µM and 58.4 µM; at Genome polyprotein [2] it was above 99.5 µM.
In the case of `CC[C@H](Cc1nnn[nH]1)c1ccc(NC(=O)c2cc(Cl)cc(C#N)c2)cc1`, the IC50 was above 100 µM against Genome polyprotein [1] and above 99.5 µM on Genome polyprotein [2].
For `Cc1cc(CN)cc(NC(=O)c2cc(C3CC3)n(C)c2C)c1`, the IC50 was above 100 µM against Genome polyprotein [1] and above 99.5 µM against Genome polyprotein [2].
Consider `O=C(Nc1cc(Cl)cc(C(=O)Nc2ccc([C@H]3CNCCO3)cc2)c1)OCc1ccccc1`, for which the IC50 at Genome polyprotein [1] is above 100 µM; against Genome polyprotein [2], above 99.5 µM.
For `Cc1c(C(=O)Nc2cccc([C@@H](C)N)c2)cc(C2CC2)n1C`, the IC50 at Genome polyprotein [1] is above 100 µM; against Genome polyprotein [2] it was above 99.5 µM.
Turning to `Cn1cc(C(=O)Nc2cccc(CN)c2)c(-c2cnccn2)n1`, the concentration for half-maximal inhibition (IC50) on Genome polyprotein [1] is above 100 µM; at Genome polyprotein [2], above 99.5 µM.
Taken in the same sequence, the figures for `N#Cc1cc(Cl)cc(C(=O)Nc2cccc(-c3nnn[nH]3)c2)c1` were above 100 µM and above 99.5 µM.
On to `N[C@H]1CCN(c2ccc(NC(=O)c3cc(Cl)cc(NC(=O)OCc4ccccc4)c3)cc2)C1`, for which the IC50 on Genome polyprotein [1] was above 100 µM; against Genome polyprotein [2], 35.4 µM.
`CNC(=O)[C@H](Nc1cccc(CN)c1)c1cc(Cl)cc(NC(=O)OCc2ccccc2)c1`: the IC50 was above 100 µM against Genome polyprotein [1] and above 99.5 µM at Genome polyprotein [2].
Consider `O=C(Nc1cccc(-n2nn[nH]c2=O)c1)c1cc(Cl)cc2c1CCC2`, for which the figures for the 50% inhibitory concentration (IC50) against Genome polyprotein [1] and against Genome polyprotein [2] were above 100 µM and above 99.5 µM, respectively.
Take `O=C(Nc1cc(Cl)cc(C(=O)Nc2ccc([C@H]3CCCNC3)cc2)c1)OCc1ccccc1`: the IC50 is above 100 µM against Genome polyprotein [1] and 68.4 µM against Genome polyprotein [2].
Take `NC1CCN(c2ccc(NC(=O)c3cc(Cl)cc(NC(=O)OCc4ccccc4)c3)cc2)CC1`: the IC50 is above 100 µM at Genome polyprotein [1] and 39.7 µM against Genome polyprotein [2].
For the compound `O=C(Nc1cccc(-c2nnn[nH]2)c1)c1cc(Cl)cc(C2CC2)c1`, the IC50 was 39.7 µM and 43.5 µM against Genome polyprotein [1]; 82.9 µM at Genome polyprotein [2].
Turning to `Cc1c(C(=O)Nc2cc(CCCN)ccn2)cc(C2CC2)n1C`, the IC50 is above 100 µM against Genome polyprotein [1]; 74.6 µM and 35.9 µM at Genome polyprotein [2].
For the compound `NCc1cccc(NC(=O)c2nc(C3CC3)n(-c3ccccc3Cl)n2)c1`, the values for the half-inhibitory concentration (IC50) on Genome polyprotein [1] and against Genome polyprotein [2] were above 100 µM and above 99.5 µM, respectively.
Regarding `Cc1cc(C(=O)Nc2cccc(CN)c2)c(NC(=O)[C@H]2CCCO2)s1`, the half-inhibitory concentration (IC50) at Genome polyprotein [1] was above 100 µM; at Genome polyprotein [2] it was above 99.5 µM.
In the case of `NCc1cccc(NC(=O)c2cc(Br)cc(-n3cnnn3)c2)c1`, the results for the IC50 on Genome polyprotein [1] and against Genome polyprotein [2] were above 100 µM and above 99.5 µM, respectively.
Take `O=C(Nc1cc(Cl)cc(C(=O)N[C@H](c2nn[nH]n2)C2CNC2)c1)OCc1ccccc1`: the IC50 on Genome polyprotein [1] is above 100 µM; on Genome polyprotein [2] it was above 99.5 µM.
With `COc1cc(C(=O)Nc2cccc(CN)c2)cc2cn(C)nc12`, the IC50 against Genome polyprotein [1] is above 100 µM; against Genome polyprotein [2], above 99.5 µM.
As for `Cc1oc(C(=O)Nc2cccc(CN)c2)cc1COc1ccccc1`, the IC50 was above 100 µM at Genome polyprotein [1] and above 99.5 µM on Genome polyprotein [2].
As for `CN(C)[C@H](C(=O)Nc1cccc(CN)c1)c1cc(Cl)cc(Cl)c1`, the IC50 is above 100 µM at Genome polyprotein [1] and above 99.5 µM on Genome polyprotein [2].
Taken in the same sequence, the figures for `Cn1nc(C(=O)Nc2cccc(CN)c2)c2c1CCS(=O)(=O)C2` were above 100 µM and above 99.5 µM.
Turning to `O=C(Nc1cccc(-n2nn[nH]c2=O)c1)c1cc(Cl)cc(N2CCCC2=O)c1`, the figures for the IC50 on Genome polyprotein [1] and against Genome polyprotein [2] were above 100 µM and above 99.5 µM, respectively.
Turning to `CC[C@H](Cc1nnn[nH]1)c1ccc(NC(=O)c2cc(Cl)cc3c2CCC3)cc1`, the IC50 turned out to be 58.8 µM on Genome polyprotein [1] and 83.6 µM on Genome polyprotein [2].
Consider `CC[C@H](Cc1nnn[nH]1)c1ccc(NC(=O)c2cc(Cl)cc(C3CC3)c2)cc1`, for which the IC50 was 28.7 µM and 35.1 µM at Genome polyprotein [1]; 55.2 µM on Genome polyprotein [2].
For `Cc1c(C(=O)Nc2cccc(C3CCNCC3)c2)cc(C2CC2)n1C`, the values for the IC50 against Genome polyprotein [1] and at Genome polyprotein [2] were above 100 µM and above 99.5 µM, respectively.
On to `O=C(Nc1cc(Cl)cc(C(=O)Nc2ccc3c(c2)CNC3=O)c1)OCc1ccccc1`, for which the IC50 against Genome polyprotein [1] is above 100 µM; on Genome polyprotein [2], above 99.5 µM.
In the case of `Cc1c(C(=O)Nc2n[nH]c3c2CNC3)cc(C2CC2)n1C`, the IC50 at Genome polyprotein [1] is above 100 µM; against Genome polyprotein [2], above 99.5 µM.
Consider `Cc1c(C(=O)Nc2ccc(CCN)cc2)cc(C2CC2)n1C`, for which the concentration for half-maximal inhibition (IC50) against Genome polyprotein [1] was above 100 µM; on Genome polyprotein [2], above 99.5 µM.
In the case of `CC[C@H](Cc1nnn[nH]1)c1ccc(NC(=O)c2cc(Cl)cc(Cl)c2OC)cc1`, the half-maximal inhibitory concentration (IC50) against Genome polyprotein [1] is above 100 µM; against Genome polyprotein [2], above 99.5 µM.
Regarding `CCNC(=O)Nc1cc(Cl)cc(C(=O)O)c1`, the concentration for half-maximal inhibition (IC50) on Genome polyprotein [1] is above 100 µM; at Genome polyprotein [2], above 99.5 µM.

By IC50 is commonly meant the concentration needed to halve the response being measured. A higher IC50 goes with lower potency.
